Measured values published in article PMC12706802, “Ortho-Hydroxyanilides: Slow-Acting, Selective Histone Deacetylase 1/2 Inhibitors Suitable for Photocaging Applications” (ACS Pharmacology & Translational Science, 2025).
Read-outs that look alike come from different tables or passages of the source.

What was measured:
HEK293 cells = experiment: CellTiter-Glo 2.0 cell viability assay; assay type: cell-based; settings: Homo sapiens; for EC50: 120 h incubation, nontumorigenic cell line
Procedure: (§1) To evaluate the cytotoxicity of the selected HDAC inhibitors, compounds were tested for their antiproliferative activity against MV-3 and MDA-MB-231 cells using the MTT assay. […] (Promega; Walldorf, Germany) was utilized to assess the antiproliferative effects. MM.1S and HEK293 cells were seeded at a density of 1000 cells per well in 384-well plates, with each well containing 22.5 μL of volume. […] Subsequently, cells were stimulated with 2.5 μL of the dilution series of the test compounds. Following compound exposure, the plates were incubated for 120 h in the incubator set at 37 °C with 5% CO2. Post 120 h of incubation, 25.0 μL of CellTiter-Glo reagent was dispensed into each well and the plates were incubated at the room temperature for 10 min. Luminescence was then measured using a Spark multimode microplate reader (Tecan Group AG, Maennedorf, Swiss). Data were normalized against controls: wells treated with 0.5% DMSO were set as 100% viable, while those treated with 10% DMSO were considered completely nonviable (0% viability).

MM.1S cells = experiment: CellTiter-Glo 2.0 cell viability assay; assay type: cell-based; settings: Homo sapiens, MM1.S; 120 h incubation
Procedure: as §1

HDAC1 = settings: cited from earlier work
[1] = test system: Ac-histone H3 (class I HDACs); experiment: Immunoblot analysis of MV-3 cell lysates incl. wash out; assay type: cell-based, human; settings: for histone H3 acetylation after wash out (immunoblot): MV-3, 5 μM for 48 h, then up to 6 h without inhibitor; for acetylation level of histone H3 (immunoblot): MV-3, 5 μM, 24–72 h, substantial increase after 72 h
Procedure: The impact on the acetylation levels of the HDAC substrates Ac-histone H3 (class I HDACs) and Ac-α-tubulin (HDAC6) was analyzed by immunoblot analysis.
6 Immunoblot analysis of MV-3 cell lysates. […] Representative images from at least three replicates are shown. DMSO (0.025%) was used as vehicle control and GAPDH as loading control.
After that, cells were treated with a concentration of 5 μM of HDAC inhibitor or vehicle (DMSO) for additional 24 h, 48 h or 72 h. For cell lysis the cells were initially washed with PBS and detached using a scraper. The cells were then centrifuged at 1200 rpm for 4 min at 4 °C, followed by two additional washing steps. After that, the cell pellet was resuspended in 100 μL of freshly prepared lysis buffer and incubated on ice for 30 min with vortexing every 10 min. The lysis buffer consisted of Invitrogen cell extraction buffer (10 mM Tris, pH 7.4, 100 mM NaCl, […], […], 1 mM NaF, 20 mM Na4P2O7, 2 mM Na3VO4, 1% Triton × −100, 10% glycerol, 0.1% SDS, 0.5% deoxycholate; Catalog# FNN0011, Thermo Fisher Scientific Inc., Waltham, MA, USA), supplemented with 0.1 mM PMSF (Catalog# 10837091001, Sigma-Aldrich, St. Louis, MO, USA) and Halt Protease Inhibitor (100×) (Catalog# 78429, Life Technologies GmbH Carlsbad, CA, USA). Finally, the samples were centrifuged at 14,000 rpm and 4 °C for 30 min and the supernatant was collected. Protein quantification was performed by using BCA protein assay reagents (Catalog# 23225, Thermo Fisher Scientific Inc., Waltham, MA, USA). Lysates were mixed with Laemmli sample buffer 2× concentrate (Catalog# S3401-10VL, Sigma-Aldrich, St. Louis, MO, USA) to a protein concentration of 1.25 μg/μL and denatured at 95 °C for 5 min. Subsequently, SDS-PAGE was performed with 2–20% Mini-PROTEAN TGX stain-free gels (Catalog# 456809, Bio-Rad, Hercules, CA, USA) at 200 V for 45 min. Proteins were then transferred to a Trans-Blot Turbo-PVDF membrane (Catalog# 1704156, Bio-Rad, Hercules, CA, USA) with the Trans-Blot Turbo Transfer System (Catalog# 1704150, Bio-Rad, Hercules, CA, USA) at 25 V for 5 min. The membrane was blocked with a solution of 5% milk powder in TBST (Tris-buffered saline-Tween 20 0.2%) for 60 min at room temperature. After three washing cycles for 10 min with TBST, the membrane was incubated with the respective antibody and a mouse anti-GAPDH antibody (Catalog# T0004, Affinity Biosciences, Cincinnati, OH, USA; 1:20,000 dilution) at room temperature for 60 min and 4 °C overnight. […] After washing off the secondary antibody, protein bands were detected via chemiluminescence using Clarity Western ECL substrate (Catalog# 1705061, Bio-Rad, Hercules, CA, USA). […]

MDA-MB-231 cells = experiment: MTT cell viability (antiproliferative) assay; assay type: cell-based; settings: Homo sapiens
Procedure: To evaluate the cytotoxicity of the selected HDAC inhibitors, compounds were tested for their antiproliferative activity against MV-3 and MDA-MB-231 cells using the MTT assay. […] MTT (3-(4,5-dimethylthiazol-2-yl)-2,5-diphenyltetrazolium bromide; Catalog# A2231; BioChemica, Applichem GmbH, Darmstadt, Germany) was utilized to measure the antiproliferative effect. Depending on the incubation time, 3000 MV-3 cells (72 h), 2000 MV-3 cells (96 h) or 1000 MV-3 cells (120 h) per well were seeded in 96-well plates (Starlab GmbH, Hamburg, Germany) with each well containing 199 μL of volume. […] Next, predilutions of the test compounds were prepared in DMSO. […] Subsequently, cells were treated with 1.0 μL of the dilution series of the test compounds. […] After removing the supernatant, formazan was solubilized in 200.0 μL DMSO. The absorbance was measured at 570 nm with background subtraction at 690 nm using a Multiskan microplate photometer (Thermo Fisher Scientific, Waltham, MA, USA). The obtained data were normalized to PBS, considering 100% viability.

[2] = MDA-MB-231, light or radiation study, incubation time 120 h, no irradiation
[3] = MDA-MB-231, incubation time 96 h

| Compound | EC50 (HEK293 cells) [nM] | inhibition at 5 µM (HEK293 cells; at 5.00 μM, 120 h, read-out: inhibition at the stated concentration, HEK293 (CellTiter-Glo)) [%] | EC50 (MM.1S cells) [nM] | IC50 (HDAC1; previously described, ref Methot et al.) [nM] | histone H3 acetylation after wash out (immunoblot) [1] | acetylation level of histone H3 (immunoblot) [1] | EC50 (MDA-MB-231 cells; [2]) [µM] | EC50 (MDA-MB-231 cells; [3]) [µM] | IC50 (HDAC1; literature value for Cpd-60, ref number not given) [nM] |
| --- | --- | --- | --- | --- | --- | --- | --- | --- | --- |
| CC(=O)Nc1ccc(C(=O)Nc2cc(-c3ccccc3)ccc2O)cc1 [ST13, 4-Acetamido-N-(4-hydroxy-[1,1′-biphenyl]-3-yl)-benzamide] | > 5000 | < 25 | 198 | 18 | persistent histone H3 acetylation | hyperacetylation of histone H3 | 4.87 ± 0.86 | 13.9 ± 3.4 | – |
| CC(=O)Nc1ccc(C(=O)Nc2cc(-c3cccs3)ccc2N)cc1 [Cpd-60, reference compound] | 1500 | – | 111 | – | persistent histone H3 acetylation | hyperacetylation of histone H3 | 0.89 ± 0.25 | 3.21 ± 1.01 | 7 |
